Patent US10611731B2, “5-methyl-6-phenyl-4,5-dihydro-2H-pyridazin-3-one derivative” (OTSUKA PHARMACEUTICAL CO., LTD., priority 2016, dated 2020)

tested on: human childhood brain tumor cell lines (PFSK-1); experiment: Growth inhibitory activity against PFSK-1 cells (WST-8, Cell Counting Kit-8); format: cell-based; settings: Homo sapiens, 72 h, 3 days incubation with test compound, WST-8 OD 450/630 nm, read-out: IC50 (concentration inhibiting 50% of the cell growth)
Summary of the method: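 Cells seeded in RPMI 1640 with 10% FBS and preincubated 24 h at 37 °C, 5% CO2, then exposed to compound for 3 days. IC50 (nM) from growth relative to untreated control.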

SMILES	IC50
CCC(O)COc1c(Cl)cc(C2=NNC(=O)CC2C)cc1Cl (stereo not shown) [Example 63, 6-[3,5-Dichloro-4-(2-hydroxybutoxy)phenyl]-5-methyl-4,5-dihydro-2H-pyridazin-3-one]	5 nM
CC1CC(=O)NN=C1c1cc(F)c(OCC(O)(C(F)(F)F)C(F)(F)F)c(Br)c1 (stereo not shown) [Example 38, 6-{3-Bromo-5-fluoro-4-[3,3,3-trifluoro-2-hydroxy-2-(trifluoromethyl)propoxy]phenyl}-5-methyl-4,5-dihydro-2H-pyridazin-3-one]	5.2 nM
Cc1c(O)c(C2=NNC(=O)CC2C)cc(Cl)c1OCC(C)(C)O (stereo not shown) [Example 130, 6-[5-Chloro-2-hydroxy-4-(2-hydroxy-2-methylpropoxy)-3-methylphenyl]-5-methyl-4,5-dihydro-2H-pyridazin-3-one]	7 nM
CC(O)COc1c(Cl)cc(C2=NNC(=O)CC2C)cc1Cl (stereo not shown) [Example 53, 6-[3,5-dichloro-4-(2-hydroxypropoxy)phenyl]-5-methyl-4,5-dihydro-2H-pyridazin-3-one]	1.9 nM
C=Cc1c(OCC(O)CC)ccc(C2=NNC(=O)CC2C)c1F (stereo not shown) [Example 67, 6-[2-Fluoro-4-(2-hydroxybutoxy)-3-vinylphenyl]-5-methyl-4,5-dihydro-2H-pyridazin-3-one]	3.6 nM
C[C@@H]1CC(=O)NN=C1c1cc(F)c(OCC(C)(C)O)c(F)c1 [Example 117, (5R)-(−)-6-[3,5-Difluoro-4-(2-hydroxy-2-methylpropoxy)phenyl]-5-methyl-4,5-dihydro-2H-pyridazin-3-one]	3 nM
CC1CC(=O)NN=C1c1cc(F)c(OC/C=C\CO)c(Cl)c1 (stereo not shown) [Example 94, 6-{3-Chloro-5-fluoro-4-[(Z)-4-hydroxy-2-butenyloxy]phenyl}-5-methyl-4,5-dihydro-2H-pyridazin-3-one]	3 nM
Cc1cc(C2=NNC(=O)CC2C)cc(Cl)c1OCC1(O)CC1 (stereo not shown) [Example 44, 6-{3-chloro-4-[(1-hydroxycyclopropyl)methoxy]-5-methylphenyl}-5-methyl-4,5-dihydro-2H-pyridazin-3-one]	1 nM
CC1CC(=O)NN=C1c1cc(F)c(OCCCO)c(Br)c1 (stereo not shown) [Example 11, 6-[3-Bromo-5-fluoro-4-(3-hydroxypropoxy)phenyl]-5-methyl-4,5-dihydro-2H-pyridazin-3-one]	3 nM
CC1CC(=O)NN=C1c1cc(Cl)c(OCCCCO)c(Cl)c1 (stereo not shown) [Example 81, 6-[3,5-Dichloro-4-(4-hydroxybutoxy)phenyl]-5-methyl-4,5-dihydro-2H-pyridazin-3-one]	4.7 nM
CCc1c(OCC(C)O)ccc(C2=NNC(=O)CC2C)c1F (stereo not shown) [Example 60, 6-[3-Ethyl-2-fluoro-4-(2-hydroxypropoxy)phenyl]-5-methyl-4,5-dihydro-2H-pyridazin-3-one]	4.7 nM
CC(O)COc1ccc(C2=NNC(=O)CC2C)c(F)c1C#N (stereo not shown) [Example 104, 2-fluoro-6-(2-hydroxypropoxy)-3-(4-methyl-6-oxo-4,5-dihydro-1H-pyridazin-3-yl)benzonitrile]	5.2 nM
Cc1cc(C2=NNC(=O)CC2C)cc(Cl)c1OCC(C)CO (stereo not shown) [Example 142, 6-[3-chloro-4-(3-hydroxy-2-methylpropoxy)-5-methylphenyl]-5-methyl-4,5-dihydro-2H-pyridazin-3-one]	1 nM
CC1CC(=O)NN=C1c1cc(F)c(OCC(C)(C)O)c(Cl)c1 (stereo not shown) [Example 25, 6-[3-Chloro-5-fluoro-4-(2-hydroxy-2-methylpropoxy)phenyl]-5-methyl-4,5-dihydro-2H-pyridazin-3-one]	2.6 nM
Cc1cc(C2=NNC(=O)CC2C)c(F)c(Cl)c1OCC1(O)CC1 (stereo not shown) [Example 167, 6-{3-Chloro-2-fluoro-4-[(1-hydroxycyclopropyl)methoxy]-5-methylphenyl}-5-methyl-4,5-dihydro-2H-pyridazin-3-one]	1.3 nM
CC1CC(=O)NN=C1c1cc(Cl)c(OCC2(O)CC2)c(Br)c1 (stereo not shown) [Example 165, 6-{3-bromo-5-chloro-4-[(1-hydroxycyclopropyl)methoxy]phenyl}-5-methyl-4,5-dihydro-2H-pyridazin-3-one]	2.6 nM
Cc1c(OCC(C)(C)O)ccc(C2=NNC(=O)CC2C)c1F (stereo not shown) [Example 34, 6-[2-Fluoro-4-(2-hydroxy-2-methylpropoxy)-3-methylphenyl]-5-methyl-4,5-dihydro-2H-pyridazin-3-one]	5.2 nM
Cc1cc(C2=NNC(=O)CC2C)cc(Cl)c1OCCC(C)O (stereo not shown) [Example 143, 6-[3-Chloro-4-(3-hydroxybutoxy)-5-methylphenyl]-5-methyl-4,5-dihydro-2H-pyridazin-3-one]	6.9 nM
CC1CC(=O)NN=C1c1cc(F)c(OCC(C)(C)O)c(Br)c1 (stereo not shown) [Example 26, 6-[3-bromo-5-fluoro-4-(2-hydroxy-2-methylpropoxy)phenyl]-5-methyl-4,5-dihydro-2H-pyridazin-3-one]	2 nM
Cc1c(OCC(C)O)ccc(C2=NNC(=O)CC2C)c1O (stereo not shown) [Example 74, 6-[2-hydroxy-4-(2-hydroxypropoxy)-3-methylphenyl]-5-methyl-4,5-dihydro-2H-pyridazin-3-one]	4.1 nM

SMILES	IC50
Cc1c(OCCCO)ccc(C2=NNC(=O)CC2C)c1F (stereo not shown) [Example 21, 6-[2-Fluoro-4-(3-hydroxypropoxy)-3-methylphenyl]-5-methyl-4,5-dihydro-2H-pyridazin-3-one]	4 nM
Cc1cc(C2=NNC(=O)CC2C)c(F)c(C)c1OCCCO (stereo not shown) [Example 141, 6-[2-Fluoro-4-(3-hydroxypropoxy)-3,5-dimethylphenyl]-5-methyl-4,5-dihydro-2H-pyridazin-3-one]	4.6 nM
CC(O)COc1ccc(C2=NNC(=O)CC2C)c(O)c1Cl (stereo not shown) [Example 75, 6-[3-Chloro-2-hydroxy-4-(2-hydroxypropoxy)phenyl]-5-methyl-4,5-dihydro-2H-pyridazin-3-one]	3.2 nM
Cc1cc(C2=NNC(=O)CC2C)cc(F)c1OCCCO (stereo not shown) [Example 20, 6-[3-Fluoro-4-(3-hydroxypropoxy)-5-methylphenyl]-5-methyl-4,5-dihydro-2H-pyridazin-3-one]	4.2 nM
CC1CC(=O)NN=C1c1cc(F)c(OCC(F)(F)CO)c(Cl)c1F (stereo not shown) [Example 161, 6-[3-Chloro-4-(2,2-difluoro-3-hydroxypropoxy)-2,5-difluorophenyl]-5-methyl-4,5-dihydro-2H-pyridazin-3-one]	2.7 nM
CC1CC(=O)NN=C1c1ccc(OCC2(O)CC2)c(Br)c1F (stereo not shown) [Example 168, 6-{3-Bromo-2-fluoro-4-[(1-hydroxycyclopropyl)methoxy]phenyl}-5-methyl-4,5-dihydro-2H-pyridazin-3-one]	2.3 nM
CC1CC(=O)NN=C1c1ccc(OCCCCO)c(F)c1F (stereo not shown) [Example 82, 6-[2,3-Difluoro-4-(4-hydroxybutoxy)phenyl]-5-methyl-4,5-dihydro-2H-pyridazin-3-one]	6 nM
CC1CC(=O)NN=C1c1cc(F)c(OCC2(O)CC2)c(Br)c1 (stereo not shown) [Example 169, 6-{3-Bromo-5-fluoro-4-[(1-hydroxycyclopropyl)methoxy]phenyl}-5-methyl-4,5-dihydro-2H-pyridazin-3-one]	4 nM
CCC(O)COc1ccc(C2=NNC(=O)CC2C)c(O)c1Cl (stereo not shown) [Example 163, 6-[3-Chloro-2-hydroxy-4-(2-hydroxybutoxy)phenyl]-5-methyl-4,5-dihydro-2H-pyridazin-3-one]	5.2 nM
CC(O)COc1ccc(C2=NNC(=O)CC2C)c(F)c1F (stereo not shown) [Example 49, 6-[2,3-Difluoro-4-(2-hydroxypropoxy)phenyl]-5-methyl-4,5-dihydro-2H-pyridazin-3-one]	2.8 nM
CC1CC(=O)NN=C1c1ccc(OC[C@H]2C[C@H]2CO)c(Cl)c1F (relative stereo) [Example 154, 6-(3-Chloro-2-fluoro-4-{[(1S*,2R*)-2-(hydroxymethyl)cyclopropyl]methoxy}phenyl)-5-methyl-4,5-dihydro-2H-pyridazin-3-one]	2.9 nM
CC1CC(=O)NN=C1c1cc(F)c(OCC(C)(C)CO)c(Cl)c1 (stereo not shown) [Example 7, 6-[3-chloro-5-fluoro-4-(3-hydroxy-2,2-dimethylpropoxy)phenyl]-5-methyl-4,5-dihydro-2H-pyridazin-3-one]	1 nM
Cc1cc(C2=NNC(=O)CC2C)c(F)c(Cl)c1OC/C=C\CO (stereo not shown) [Example 151, 6-{3-Chloro-2-fluoro-4-[(Z)-4-hydroxy-2-butenyloxy]-5-methylphenyl}-5-methyl-4,5-dihydro-2H-pyridazin-3-one]	1.3 nM
CC1CC(=O)NN=C1c1cc(F)c(OCC(C)(C)CO)c(Br)c1 (stereo not shown) [Example 69, 6-[3-bromo-5-fluoro-4-(3-hydroxy-2,2-dimethylpropoxy)phenyl]-5-methyl-4,5-dihydro-2H-pyridazin-3-one]	1.2 nM
C[C@@H]1CC(=O)NN=C1c1ccc(OCCCCO)c(Cl)c1O [Example 180, (5R)-(−)-6-[3-chloro-2-hydroxy-4-(4-hydroxybutoxy)phenyl]-5-methyl-4,5-dihydro-2H-pyridazin-3-one]	6.5 nM
Cc1cc(C2=NNC(=O)CC2C)c(O)c(Cl)c1OCC(C)(C)O (stereo not shown) [Example 129, 6-[3-Chloro-2-hydroxy-4-(2-hydroxy-2-methylpropoxy)-5-methylphenyl]-5-methyl-4,5-dihydro-2H-pyridazin-3-one]	3.6 nM
CC1CC(=O)NN=C1c1ccc(OCC(F)(F)CO)c(F)c1F (stereo not shown) [Example 108, 6-[4-(2,2-Difluoro-3-hydroxypropoxy)-2,3-difluorophenyl]-5-methyl-4,5-dihydro-2H-pyridazin-3-one]	4.1 nM
CCC(O)COc1ccc(C2=NNC(=O)CC2C)c(F)c1F (stereo not shown) [Example 61, 6-[2,3-Difluoro-4-(2-hydroxybutoxy)phenyl]-5-methyl-4,5-dihydro-2H-pyridazin-3-one]	4.7 nM
Cc1c(OCC(F)(F)CO)ccc(C2=NNC(=O)CC2C)c1O (stereo not shown) [Example 115, 6-[4-(2,2-difluoro-3-hydroxypropoxy)-2-hydroxy-3-methylphenyl]-5-methyl-4,5-dihydro-2H-pyridazin-3-one]	5.9 nM
CC1CC(=O)NN=C1c1ccc(OCC2(O)CC2)c(Cl)c1F (stereo not shown) [Example 47, 6-{3-chloro-2-fluoro-4-[(1-hydroxycyclopropyl)methoxy]phenyl}-5-methyl-4,5-dihydro-2H-pyridazin-3-one]	2.4 nM
